4 compounds from ChEMBL document CHEMBL2434869, “Pyrazole containing natural products: synthetic preview and biological significance” (Eur J Med Chem, 2013) can be followed below.

Molecules are shown by their SMILES.

Data set [1] can be described thus: Toxicity in white mouse. Particulars: in vivo. Format: organism-based.
Data set [2] is described as follows: Cytotoxicity against mouse EAC assessed as growth inhibition. Format: functional, Ehrlich.
Data set [3] deals with X5563. Briefly: Cytotoxicity against mouse X5563 cells assessed as growth inhibition. Format: functional.
Data set [4] can be described thus: Cytotoxicity against mouse Gardner lymphosarcoma cells assessed as growth inhibition. Format: functional.
Data set [5] can be described thus: Cytotoxicity against mouse mammary carcinoma 755 cells assessed as growth inhibition. Format: functional.
Data set [6] in a line: Cytotoxicity against rat Walker 256 cells assessed as growth inhibition. Format: functional.

`COc1nnc2nn(C)cnc1-2` had an MTD in data set [1] of 0.2 mg/kg. In addition, the “growth inhibition (GI)” value in data set [2] came out at 40%.

The compound `COc1nnc2n(C)ncnc1-2` [PSEUDOIODININE] registered an MTD in data set [1] of 20 mg/kg. Also, the “growth inhibition (GI)” value in data set [2] is 64%.

With `COc1[nH]nc2nncnc12`, the MTD in data set [1] was found to be 50 mg/kg. Further, in data set [2], the “growth inhibition (GI)” value is recorded as 83%.

With `NC(=O)c1ncn([C@@H]2O[C@H](CO)[C@@H](O)[C@H]2O)n1` [RIBAVIRIN], the “growth inhibition (GI)” value in data set [3], in data set [4], in data set [5] and in data set [6] was greater than 50% in each case.
